Data from PubChem BioAssay AID342 (DTP/NCI, 2004).
Values joined by “and” are separate entries in the source; they are usually repeats but may differ in a detail not shown here. Equal values may be shown once.

System: Swiss mice, Sarcoma 180 sc, mean tumor weight T/C
Assay: NCI In Vivo Anticancer Drug Screen. Data for tumor model Sarcoma 180 (subcutaneous) in Swiss mice
Conditions: endpoint: mean tumor weight, higher = larger tumour
How it was run: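 Tumor-bearing mice, transplantable tumor; readout survival or tumor size; result = T/C, treated vs vehicle control.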

[1] = dose: 15.0 mg/kg/injection, schedule: Q01DX007 (ip), vehicle: carboxymethylcellulose (CMC)
[2] = dose: 30.0 mg/kg/injection, schedule: Q01DX007 (ip), vehicle: carboxymethylcellulose (CMC)

## O=CNc1c(Cl)c(Cl)c2c(c1Cl)Cc1cc(Cl)ccc1-2
dose: 5.0 mg/kg/injection, schedule: Q01DX007 (ip), vehicle: carboxymethylcellulose (CMC)
  T/C: 70 % of control
[1]
  T/C: 60 % of control
[2]
  T/C: 34 % of control
dose: 49.0 mg/kg/injection, schedule: Q01DX007 (ip), vehicle: carboxymethylcellulose (CMC)
  T/C: 63 % of control
dose: 73.0 mg/kg/injection, schedule: Q01DX007 (ip), vehicle: carboxymethylcellulose (CMC)
  T/C: 64 % of control
dose: 110.0 mg/kg/injection, schedule: Q01DX007 (ip), vehicle: carboxymethylcellulose (CMC)
  T/C: 51 % of control
dose: 165.0 mg/kg/injection, schedule: Q01DX007 (ip), vehicle: carboxymethylcellulose (CMC)
  T/C: 5 % of control

## Clc1ccccc1/C=C/C=C1c2ccccc2-c2ccccc21
dose: 222.0 mg/kg/injection, schedule: Q01DX007 (ip), vehicle: other
  T/C: 72 % of control
dose: 222.0 mg/kg/injection, schedule: Q01DX007 (ip), vehicle: saline
  T/C: 83 % of control
dose: 333.0 mg/kg/injection, schedule: Q01DX007 (ip), vehicle: other
  T/C: 78 % of control
dose: 333.0 mg/kg/injection, schedule: Q01DX007 (ip), vehicle: saline
  T/C: 95 % of control
dose: 492.0 mg/kg/injection, schedule: Q01DX007 (ip), vehicle: saline
  T/C: 56 % of control
dose: 500.0 mg/kg/injection, schedule: Q01DX007 (ip), vehicle: other
  T/C: 50 % of control
dose: 500.0 mg/kg/injection, schedule: Q01DX007 (ip), vehicle: saline
  T/C: 79 % of control
dose: 750.0 mg/kg/injection, schedule: Q01DX007 (ip), vehicle: other
  T/C: 49 % of control
dose: 1119.0 mg/kg/injection, schedule: Q01DX007 (ip), vehicle: saline
  T/C: 58 % of control
dose: 1679.0 mg/kg/injection, schedule: Q01DX007 (ip), vehicle: saline
  T/C: 54 % of control

## C[C@]12CCC(=O)C[C@H]1CC[C@@H]1[C@@H]2C(=O)C[C@@]2(C)[C@H]1CC[C@]2(C)O
dose: 5.0 mg/kg/injection, schedule: Q#A X014 (sc), vehicle: steriod suspending solution
  T/C: 72 % of control
dose: 50.0 mg/kg/injection, schedule: Q#A X014 (sc), vehicle: steriod suspending solution
  T/C: 78 % of control
dose: 150.0 mg/kg/injection, schedule: Q#A X014 (sc), vehicle: steriod suspending solution
  T/C: 110 % of control

## CCOC(=O)C(Cc1ccccc1)c1ccc(Cl)cc1 (stereo not given)
dose: 62.5 mg/kg/injection, schedule: Q01DX007 (ip), vehicle: methylcellulose (MC)
  T/C: 67 % of control
dose: 125.0 mg/kg/injection, schedule: Q01DX007 (ip), vehicle: methylcellulose (MC)
  T/C: 75 % of control
dose: 250.0 mg/kg/injection, schedule: Q01DX007 (ip), vehicle: methylcellulose (MC)
  T/C: 118 % of control

## CCN(CC)CCNc1ccc(C)c2sc3ccccc3c(=O)c12
dose: 4.87 mg/kg/injection, schedule: Q#A X014 (ip), vehicle: carboxymethylcellulose (CMC)
  T/C: 120 % of control
dose: 7.5 mg/kg/injection, schedule: Q01DX007 (ip), vehicle: carboxymethylcellulose (CMC)
  T/C: 93 % of control
dose: 9.75 mg/kg/injection, schedule: Q01DX007 (ip), vehicle: carboxymethylcellulose (CMC)
  T/C: 60 % of control
dose: 9.75 mg/kg/injection, schedule: Q#A X014 (ip), vehicle: carboxymethylcellulose (CMC)
  T/C: 77 % of control
dose: 12.5 mg/kg/injection, schedule: Q#A X014 (ip), vehicle: carboxymethylcellulose (CMC)
  T/C: 85 % of control
[1]
  T/C: 101 % of control
dose: 19.5 mg/kg/injection, schedule: Q01DX007 (ip), vehicle: carboxymethylcellulose (CMC)
  T/C: 72 % of control
dose: 19.5 mg/kg/injection, schedule: Q#A X014 (ip), vehicle: carboxymethylcellulose (CMC)
  T/C: 75 % of control
dose: 25.0 mg/kg/injection, schedule: Q#A X014 (ip), vehicle: carboxymethylcellulose (CMC)
  T/C: 64 % of control
[2]
  T/C: 106 % of control
dose: 31.2 mg/kg/injection, schedule: Q01DX007 (ip), vehicle: carboxymethylcellulose (CMC)
  T/C: 117 % of control
dose: 39.0 mg/kg/injection, schedule: Q#A X014 (ip), vehicle: carboxymethylcellulose (CMC)
  T/C: 32 % of control
dose: 50.0 mg/kg/injection, schedule: Q#A X014 (ip), vehicle: carboxymethylcellulose (CMC)
  T/C: 35 % of control
dose: 52.0 mg/kg/injection, schedule: Q01DX007 (ip), vehicle: carboxymethylcellulose (CMC)
  T/C: 82 % of control
dose: 60.0 mg/kg/injection, schedule: Q01DX007 (ip), vehicle: carboxymethylcellulose (CMC)
  T/C: 55 % of control

## C1CN1c1nc(N2CC2)nc(N2CC2)n1
dose: 85.0 micrograms/kg/injection, schedule: Q01DX007 (ip), vehicle: carboxymethylcellulose (CMC)
  T/C: 111 % of control
dose: 170.0 micrograms/kg/injection, schedule: Q01DX007 (ip), vehicle: carboxymethylcellulose (CMC)
  T/C: 95 % of control
dose: 340.0 micrograms/kg/injection, schedule: Q01DX007 (ip), vehicle: carboxymethylcellulose (CMC)
  T/C: 119 % of control
dose: 680.0 micrograms/kg/injection, schedule: Q01DX007 (ip), vehicle: carboxymethylcellulose (CMC)
  T/C: 124 % of control

## O=C(Nc1ccc(N=Nc2ccc(S(=O)(=O)O)cc2)cc1)c1ccc(N=Nc2c(O)ccc3cc(S(=O)(=O)O)ccc23)cc1
dose: 12.5 mg/kg/injection, schedule: Q01DX007 (ip), vehicle: water
  T/C: 103 % of control
dose: 25.0 mg/kg/injection, schedule: Q01DX007 (ip), vehicle: water
  T/C: 84 % of control
dose: 50.0 mg/kg/injection, schedule: Q01DX007 (ip), vehicle: water
  T/C: 67 % of control

## Cc1cc(C)c(N)c(C)c1N
dose: 187.5 mg/kg/injection, schedule: Q#A X014 (ip), vehicle: methylcellulose (MC)
  T/C: 48 % of control

## CCOc1ccc2nc(S(N)(=O)=O)sc2c1
dose: 25.0 mg/kg/injection, schedule: Q01DX007 (ip), vehicle: carboxymethylcellulose (CMC)
  T/C: 78 % of control
dose: 29.0 mg/kg/injection, schedule: Q01DX007 (ip), vehicle: carboxymethylcellulose (CMC)
  T/C: 70 % of control
dose: 44.0 mg/kg/injection, schedule: Q01DX007 (ip), vehicle: carboxymethylcellulose (CMC)
  T/C: 22 % of control
dose: 49.5 mg/kg/injection, schedule: Q#A X014 (ip), vehicle: methylcellulose (MC)
  T/C: 29 % of control and 48 % of control
dose: 50.0 mg/kg/injection, schedule: Q01DX007 (ip), vehicle: carboxymethylcellulose (CMC)
  T/C: 39 % of control
dose: 66.0 mg/kg/injection, schedule: Q01DX007 (ip), vehicle: carboxymethylcellulose (CMC)
  T/C: 51 % of control
dose: 74.0 mg/kg/injection, schedule: Q#A X014 (ip), vehicle: methylcellulose (MC)
  T/C: 13 % of control and 22 % of control
dose: 99.0 mg/kg/injection, schedule: Q01DX007 (ip), vehicle: carboxymethylcellulose (CMC)
  T/C: 43 % of control
dose: 100.0 mg/kg/injection, schedule: Q01DX007 (ip), vehicle: carboxymethylcellulose (CMC)
  T/C: 34 % of control

## O=CCC(O)C(O)C(O)CO (stereo not given)
dose: 125.0 mg/kg/injection, schedule: Q01DX007 (ip), vehicle: carboxymethylcellulose (CMC)
  T/C: 86 % of control
dose: 250.0 mg/kg/injection, schedule: Q01DX007 (ip), vehicle: carboxymethylcellulose (CMC)
  T/C: 75 % of control
dose: 500.0 mg/kg/injection, schedule: Q01DX007 (ip), vehicle: carboxymethylcellulose (CMC)
  T/C: 76 % of control
dose: 1000.0 mg/kg/injection, schedule: Q01DX007 (ip), vehicle: carboxymethylcellulose (CMC)
  T/C: 67 % of control

## NNC(=O)CCC(N)C(=O)O (stereo not given)
dose: 5.75 mg/kg/injection, schedule: Q#A X014 (ip), vehicle: carboxymethylcellulose (CMC)
  T/C: 97 % of control
dose: 11.5 mg/kg/injection, schedule: Q#A X014 (ip), vehicle: carboxymethylcellulose (CMC)
  T/C: 90 % of control
dose: 23.0 mg/kg/injection, schedule: Q#A X014 (ip), vehicle: carboxymethylcellulose (CMC)
  T/C: 118 % of control
dose: 46.0 mg/kg/injection, schedule: Q#A X014 (ip), vehicle: carboxymethylcellulose (CMC)
  T/C: 70 % of control

## C#C[C@]1(O)CC[C@H]2[C@@H]3CCc4cc(O)ccc4[C@H]3CC[C@@]21C
dose: 125.0 mg/kg/injection, schedule: Q#A X014 (sc), vehicle: steriod suspending solution
  T/C: 30 % of control and 48 % of control and 50 % of control
dose: 187.5 mg/kg/injection, schedule: Q#A X014 (sc), vehicle: steriod suspending solution
  T/C: 39 % of control and 50 % of control and 51 % of control
dose: 281.25 mg/kg/injection, schedule: Q#A X014 (sc), vehicle: steriod suspending solution
  T/C: 62 % of control and 76 % of control

## CN1CCc2cc3c(cc2C(=O)Cc2ccc4c(c2C1)OCO4)OCO3
dose: 1.56 mg/kg/injection, schedule: Q01DX007 (ip), vehicle: saline
  T/C: 109 % of control
dose: 3.13 mg/kg/injection, schedule: Q01DX007 (ip), vehicle: saline
  T/C: 69 % of control
dose: 6.25 mg/kg/injection, schedule: Q01DX007 (ip), vehicle: saline
  T/C: 119 % of control
dose: 25.0 mg/kg/injection, schedule: Q01DX007 (ip), vehicle: saline
  T/C: 60 % of control
dose: 50.0 mg/kg/injection, schedule: Q01DX007 (ip), vehicle: saline
  T/C: 64 % of control
dose: 62.0 mg/kg/injection, schedule: Q01DX007 (ip), vehicle: carboxymethylcellulose (CMC)
  T/C: 79 % of control
dose: 100.0 mg/kg/injection, schedule: Q01DX007 (ip), vehicle: saline
  T/C: 80 % of control

## O=C1Cc2ccccc2C(=O)N1
dose: 15.0 mg/kg/injection, schedule: Q#A X014 (ip), vehicle: carboxymethylcellulose (CMC)
  T/C: 84 % of control
dose: 30.0 mg/kg/injection, schedule: Q#A X014 (ip), vehicle: carboxymethylcellulose (CMC)
  T/C: 79 % of control
